The text below walks through data of ChEMBL document CHEMBL1124482, “Rotationally restricted mimics of rigid molecules: nonspirocyclic hydantoin aldose reductase inhibitors” (J Med Chem, 1989).

Broadly, the IC50 is the point on the concentration scale where inhibition reaches its midpoint. Lower therefore signals inhibition by little substance.

For test [1], the target named is T1, Aldo-keto reductase family 1 member B1 (Homo sapiens, UniProt P15121). Description: Inhibition of human placental aldose reductase (HPAR) activity with glyceraldehyde as substrate.
The target in test [2] is T1, Aldo-keto reductase family 1 member B1. Nature of the test: Compound was evaluated for inhibition of human placental aldose reductase (HPAR) activity with glyceraldehyde as substrate.

In turn, `CCCCCCS(=O)(=O)c1ccc(Cl)cc1C1NC(=O)NC1=O` (centres undefined) came in with an IC50 in test [1] of 230 nM.

The molecule `CC(C)S(=O)(=O)c1ccc(Cl)cc1C1NC(=O)NC1=O` (centres undefined) returned a 50% inhibitory concentration (IC50) in test [1] of 380 nM.

`CCCCNS(=O)(=O)c1ccc(Cl)cc1C1NC(=O)NC1=O` (centres undefined) gave a half-maximal inhibitory concentration (IC50) in test [2] of 700 nM.

As to `O=C1NC(=O)C(c2cc(Cl)ccc2S(=O)(=O)NCc2ccccc2)N1` (centres undefined), the concentration for half-maximal inhibition (IC50) in test [1] stood at 30 nM.

Consider `O=C1NC(=O)C(c2cc(Cl)ccc2S(=O)(=O)CCc2ccc(Cl)cc2)N1` (centres undefined), for which the IC50 in test [1] was 220 nM.

Molecule `O=C1NC(=O)C(c2cc(Cl)ccc2S(=O)(=O)NCCCCc2ccccc2)N1` (centres undefined) gave a half-maximal inhibitory concentration (IC50) in test [1] of 5630 nM.

Regarding `CCCCCS(=O)(=O)c1ccc(Cl)cc1C1NC(=O)NC1=O` (centres undefined), the IC50 in test [1] is 50 nM.

Take `CCS(=O)(=O)c1ccc(Cl)cc1C1NC(=O)NC1=O` (centres undefined): in test [1], the IC50 is 180 nM.

The molecule `Cc1cc(Cl)cc(C2NC(=O)NC2=O)c1S(C)(=O)=O` (centres undefined) gave an IC50 in test [1] of 270 nM.

For the molecule `CCCCCNS(=O)(=O)c1ccc(Cl)cc1C1NC(=O)NC1=O` (centres undefined), in test [1], the concentration for half-maximal inhibition (IC50) amounted to 190 nM.

`O=C1NC(=O)C(c2cc(Cl)ccc2S(=O)(=O)Cc2ccc(Cl)cc2)N1` (centres undefined): in test [1], the midpoint of inhibition, the IC50, lay at 270 nM.

In test [1], `O=C1NC(=O)C(c2cc(Cl)ccc2S(=O)(=O)NCCCc2ccccc2)N1` (centres undefined) displayed a half-maximal inhibitory concentration (IC50) of 100 nM.

`CNS(=O)(=O)c1ccc(Cl)cc1C1NC(=O)NC1=O` (centres undefined): the IC50 in test [1] is 130 nM.

On to `COc1ccc(F)cc1C1NC(=O)NC1=O` (centres undefined), for which the IC50 in test [1] is 7470 nM.

With `O=C1NC(=O)C(c2cc(Cl)ccc2[S+]([O-])Cc2ccc(Cl)cc2)N1` (centres undefined), the half-inhibitory concentration (IC50) in test [1] came out at 470 nM.

The molecule `O=C1NC(=O)C(c2cc(Cl)ccc2SCc2ccc(Cl)cc2)N1` (centres undefined) returned an IC50 in test [1] of 1200 nM.

`CS(=O)(=O)c1ccc(F)cc1C1NC(=O)NC1=O` (centres undefined) displayed an IC50 in test [1] of 610 nM.

As to `O=C1NC(=O)C(c2cc(Cl)ccc2S(=O)(=O)Nc2ccc(F)cc2)N1` (centres undefined), in test [1], 230 nM corresponded to half-maximal inhibition (IC50).

Take `O=C1NC(=O)C(c2cc(Cl)ccc2S(=O)(=O)NCCc2ccccc2)N1` (centres undefined): in test [1], the 50% inhibitory concentration (IC50) was 1260 nM.

`CS(=O)(=O)c1c(Cl)cc(Cl)cc1C1NC(=O)NC1=O` (centres undefined): the IC50 in test [1] is 610 nM.

`CS(=O)(=O)c1ccc(Cl)cc1C1NC(=O)NC1=O` (centres undefined) came in with a half-inhibitory concentration (IC50) in test [2] of 50 nM.

For `COc1ccc(Cl)cc1C1NC(=O)NC1=O` (centres undefined), the half-maximal inhibitory concentration (IC50) in test [1] is 3870 nM.

For `CSc1ccc(Cl)cc1C1NC(=O)NC1=O` (centres undefined), the IC50 in test [1] came to 620 nM.

For the molecule `C[S+]([O-])c1ccc(Cl)cc1C1NC(=O)NC1=O` (centres undefined), in test [2], half-maximal inhibition (IC50) was put at 250 nM.

With `NS(=O)(=O)c1ccc(Cl)cc1C1NC(=O)NC1=O` (centres undefined), in test [1], the 50% inhibitory concentration (IC50) came out at 150 nM.

In test [1], `CN(C)S(=O)(=O)c1ccc(Cl)cc1C1NC(=O)NC1=O` (centres undefined) registered a half-inhibitory concentration (IC50) of 4470 nM.

Molecule `CCCNS(=O)(=O)c1ccc(Cl)cc1C1NC(=O)NC1=O` (centres undefined) had an IC50 in test [1] of 580 nM.

In test [1], `CS(=O)(=O)c1c(C2NC(=O)NC2=O)cc(Cl)cc1C(F)(F)F` (centres undefined) had a half-maximal inhibitory concentration (IC50) of 580 nM.

In test [1], `CCCS(=O)(=O)c1ccc(Cl)cc1C1NC(=O)NC1=O` (centres undefined) showed an IC50 of 250 nM.
